Target: Aldo-keto reductase family 1 member B1 (Rattus norvegicus, UniProt P07943)
Test: Inhibitory concentration against aldose reductase obtained from rat lens

SMILES | IC50
O=C(O)[C@H](NS(=O)(=O)c1ccc(Cl)cc1)c1ccccc1 | 340 µM
Cc1ccc(S(=O)(=O)N[C@H](C(=O)O)c2ccccc2)cc1 | 8.9 µM
O=C(O)[C@@H](NS(=O)(=O)c1ccc([N+](=O)[O-])cc1)c1ccccc1 | 8.6 µM
COc1ccc(S(=O)(=O)N[C@H](C(=O)O)c2ccccc2)cc1 | 13 µM
O=C(O)[C@@H](NS(=O)(=O)c1ccccc1)c1ccccc1 | 11 µM
O=C(O)[C@H](NS(=O)(=O)c1ccc([N+](=O)[O-])cc1)c1ccccc1 | 980 µM
O=C(O)[C@H](NS(=O)(=O)c1ccc(F)cc1)c1ccccc1 | 960 µM
O=C(O)[C@@H](NS(=O)(=O)c1ccc(Cl)cc1)c1ccccc1 | 7.1 µM
Cc1ccc(S(=O)(=O)N[C@@H](C(=O)O)c2ccccc2)cc1 | 90 µM
COc1ccc(S(=O)(=O)N[C@@H](C(=O)O)c2ccccc2)cc1 | 36 µM
O=C(O)[C@H](NS(=O)(=O)c1ccccc1)c1ccccc1 | 460 µM
O=C(O)[C@@H](NS(=O)(=O)c1ccc(F)cc1)c1ccccc1 | 25 µM
O=C(O)CN(c1cccc([N+](=O)[O-])c1)S(=O)(=O)c1ccccc1 | 8.7 µM
Cc1ccc(N(CC(=O)O)S(=O)(=O)c2ccccc2)cc1 | 26 µM
O=C(O)c1ccccc1NS(=O)(=O)c1ccccc1 | 65 µM
CN(c1ccccc1C(=O)O)S(=O)(=O)c1ccc([N+](=O)[O-])cc1 | > 2000 µM
O=C(O)CN(c1ccccc1)S(=O)(=O)c1ccc(Cl)cc1 | 16 µM
O=C(O)CN(c1ccccc1)S(=O)(=O)c1cccc([N+](=O)[O-])c1 | 1.3 µM
O=C(O)c1ccccc1NS(=O)(=O)c1cccc2ccccc12 | 8.3 µM
O=C(O)CNS(=O)(=O)c1ccc(F)cc1 | 43 µM

SMILES | IC50
Cc1ccc(S(=O)(=O)NCC(=O)O)cc1 | 32 µM
O=C(O)CN(c1ccc(Cl)cc1)S(=O)(=O)c1ccccc1 | 27 µM
O=C(O)CNS(=O)(=O)c1ccc2ccccc2c1 | 0.4 µM
O=C(O)CNS(=O)(=O)c1ccc([N+](=O)[O-])cc1 | 79 µM
O=C(O)CNS(=O)(=O)c1ccc(Cl)cc1 | 130 µM
Nc1ccc(S(=O)(=O)N(CC(=O)O)c2ccccc2)cc1 | 9.3 µM
O=C(O)CN(c1cccc(Cl)c1)S(=O)(=O)c1ccccc1 | 13 µM
COc1ccc(S(=O)(=O)N(C)c2ccccc2C(=O)O)cc1 | > 2000 µM
Cc1ccc(S(=O)(=O)Nc2ccccc2C(=O)O)cc1 | 69 µM
Nc1ccc(S(=O)(=O)Nc2ccccc2C(=O)O)cc1 | 7.9 µM
O=C(O)CN(c1ccc(F)cc1)S(=O)(=O)c1ccccc1 | 22 µM
O=C(O)CN(c1ccccc1)S(=O)(=O)c1ccccc1[N+](=O)[O-] | 3.6 µM
COc1ccc(S(=O)(=O)Nc2ccccc2C(=O)O)cc1 | 130 µM
O=C(O)CN(c1ccccc1)S(=O)(=O)c1ccc2ccccc2c1 | 4.5 µM
O=C(O)CN(c1ccccc1)S(=O)(=O)c1ccc(NC(=O)c2ccccc2)cc1 | 0.38 µM
CN(c1ccccc1C(=O)O)S(=O)(=O)c1ccc2ccccc2c1 | 400 µM
O=C(O)CN(c1ccccc1)S(=O)(=O)c1ccccc1 | 29 µM
O=C(O)c1ccccc1NS(=O)(=O)c1ccc2ccccc2c1 | 5.7 µM
O=C(O)CN(c1ccccc1)S(=O)(=O)c1ccc([N+](=O)[O-])cc1 | 4.4 µM
O=C(O)CNS(=O)(=O)c1ccccc1 | 130 µM

SMILES | IC50
COc1ccc(S(=O)(=O)N(CC(=O)O)c2ccccc2)cc1 | 1.8 µM
O=C(O)CNS(=O)(=O)c1ccc(NC(=O)c2ccccc2)cc1 | 0.88 µM
O=C(O)c1ccccc1NS(=O)(=O)c1ccc(Cl)cc1 | 130 µM
O=C(O)CN(c1ccccc1Cl)S(=O)(=O)c1ccccc1 | 7.6 µM
O=C(O)CNS(=O)(=O)c1ccccc1[N+](=O)[O-] | 13 µM
O=C(O)CN(c1ccccc1)S(=O)(=O)c1ccc(F)cc1 | 26 µM
Nc1cccc(S(=O)(=O)N(CC(=O)O)c2ccccc2)c1 | 27 µM
Nc1ccc(N(CC(=O)O)S(=O)(=O)c2ccccc2)cc1 | 68 µM
Nc1ccccc1S(=O)(=O)NCC(=O)O | 37 µM
Cc1ccccc1N(CC(=O)O)S(=O)(=O)c1ccccc1 | 340 µM
Cc1cccc(N(CC(=O)O)S(=O)(=O)c2ccccc2)c1 | 27 µM
COc1ccc(N(CC(=O)O)S(=O)(=O)c2ccccc2)cc1 | 38 µM
Nc1ccccc1S(=O)(=O)N(CC(=O)O)c1ccccc1 | 67 µM
O=C(O)c1ccccc1NS(=O)(=O)c1ccc([N+](=O)[O-])cc1 | 390 µM
Cc1ccc(S(=O)(=O)N(CC(=O)O)c2ccccc2)cc1 | 14 µM
O=C(O)c1ccccc1NS(=O)(=O)c1ccc(Br)cc1 | 85 µM
COc1ccc(S(=O)(=O)NCC(=O)O)cc1 | 31 µM
O=C(O)C(NS(=O)(=O)c1ccc2ccccc2c1)c1ccccc1 (single isomer, unassigned; 6m) | 230 µM
O=C(O)C(NS(=O)(=O)c1ccc2ccccc2c1)c1ccccc1 (single isomer, unassigned; 6n) | 2.5 µM
